“And” between values parts separate entries of the source, which are not always exact repeats. Equal values may be shown once.
How the values were obtained:
[1] = test system: feline immunodeficiency virus (FIV); assay: CPDS in an FIV-infected cat (Example 8); assay type: in vivo
Experimental: A cat infected with feline immunodeficiency virus (FIV) was given 140 mg CPDS each morning. The CPDS was mixed with the cat's chow (food). The 140 mg CDPS dosage regimen was continued for 2 weeks. At this time, the cat's overall conditions (thin facial hair, dull eyes, excorations of the skin, appetite, general behavior) improved. After the 2 week timepoint, the dosage regimen was increased to 140 mg CPDS every morning and night (280 mg CPDS daily), mixed in the cat chow. […] The cat's eyes were bright, facial hair was thick, appearance of hair was shiny, and the cat regained its appetite and gained 300 g in weight.

[2] = Weight gain of mice on CPDS diet; assay type: in vivo, BALB/c mice
Experimental: To prepare a CPDS diet, a total of 3 kilos of Standard Purina chow was reduced to powder using a grinder. About 12 g of CPDS was added to the powder and thoroughly mixed, re-hydrated and reconstituted into pellets. Pellets were allowed to dry overnight.
Male adult BALB/c mice were weighed and randomly divided to form the experimental groups. Mice were allowed to acclimatized 3 days prior to the beginning of the experiments. Mice from the control normal diet groups were fed ad libitum with standard Purina mouse chow. Mice from the CPDS treated groups were fed ad libitum with the CPDS preparation. The amount of food given was weighted and recorded to allow the evaluation of the CPDS dosage.
The weight gained by each mice was evaluated weekly and prior to sacrifice. Mice were sacrificed by overexposure to CO2. The spleen from each mouse was collected under sterile conditions, transferred into HBSS buffered solution and kept on ice until used for other studies disclosed. Experiments were performed on the same day.

[3] = test system: antibody production to keyhole limpet hemocyanin (KLH); assay: Humoral response to KLH immunization, immunodot blot; assay type: in vivo, BALB/c mice
Experimental: To perform KLH immunization, KLH was prepared in sterile D-PBS at a concentration of 150 μg in 0.1 ml. Animals were injected 0.1 ml of the preparation subcutaneously. After 15 days and just before sacrifice, a blood sample was collected from each mouse by cardiac puncture. Serum was obtained by centrifugation, aliquoted and frozen (−20° C.) until used.
Immunodot blot assay was used to assess antibody production. Hybond-ECL membrane was used in the immunodot blot assay. A volume of 2 μl of different concentrations (0, 10, 50, 250 μg/ml) of KLH antigen was placed on the dry membrane. Antigen dots were allowed to dry overnight at 4° C. Membrane was blocked with a dry milk solution for 1 hour. Two μl of the antiserum diluted ½, ¼, 1/16, 1/32, 1/64, 1/128 and undiluted was put on the blot and incubated for 1 hour. The membrane was washed with TES buffer solution 3 times. Goat anti-mouse IgG antibodies coupled with horseradish peroxidase were put on the blot and incubated for 1 hour. The membrane was washed with TBS buffer solution 3 times. […] Revelation time was 1 minute. The membrane was exposed for 18 hours to film.
The lower serum dilution where an antibody response is apparent was chosen to calculate antibody titer. The antibody titer corresponded to the inverse of the dilution. The titer was converted to log2, e.g., 8=3 (log2). Results were compared and Student's T test was performed between the control group and the treated group. The p value was calculated for statistical significance.
For this experiment, animals were treated with CPDS for 30 days, immunized subcutaneously with keyhole limpet hemocyanin (KLH) and treated an additional 15 days, at which point blood was collected for antibody detection. […] The antibody titer to KLH was 1/4.29 (2.13 log2) for control group and 1/2.00 (1.00 log2) for CPDS-treated group. The decrease in the antibody production may be partially related to the significant decrease in the B cell population observed in the immunophenotyping results. However, no loss of reactivity was observed from the lymphoproliferative assay when B cells were stimulated with LPS.

[4] = literature statement; cited from earlier work
[5] = Group 2 (30 days CPDS diet), group Mean ± S.D.
[6] = Group 2 (30 days CPDS diet), individual mice
[7] = Group 4 (45 days CPDS diet), group Mean ± S.D.
[8] = Group 4 (45 days CPDS diet), individual mice
[9] = Group 6 (6 days CPDS diet), group Mean ± S.D.
[10] = Group 6 (6 days CPDS diet), individual mice

## O=C(O)c1ccc(SSc2ccc(C(=O)O)cn2)nc1 [CPDS, 6,6′-dithiodinicotinic acid]
[1]; FIV-infected cat, 140 mg CPDS each morning in chow for 2 weeks
  Cat's overall conditions (facial hair, eyes, skin, appetite, general behavior): improved
[1]; FIV-infected cat, 280 mg CPDS daily for a total of 59 days
  Physical condition, appearance and behavior: improved physical condition, improved overall physical appearance, and improved behavior
[1]; FIV-infected cat, after 30 days
  Weight gained by the cat: 300 g
[1]; FIV-infected cat, after 30 days, 280 mg CPDS daily after week 2
  Cat's overall conditions: overall conditions had improved
[1]; after treatment for 100 days and a year and half after treatment
  Health of the cat at follow-up: appeared entirely healthy
[2]; [5]
  Animal weight, Day 0: 14.87 ± 1.18 g
  Animal weight, Day 6: 17.89 ± 1.2 g
  Animal weight, Day 14: 19.36 ± 0.9 g
  Animal weight, Day 21: 20.50 ± 0.9 g
  Animal weight, Day 28: 22.04 ± 1.0 g
[2]; [6]
  Animal weight, Day 0: 15.87 g and 15.18 g and 12.76 g and 15.67 g and 15.69 g and 15.29 g and 15.25 g and 13.28 g
  Animal weight, Day 6: 18.64 g and 19.84 g and 15.20 g and 18.31 g and 18.66 g and 18.54 g and 17.98 g and 16.92 g
  Animal weight, Day 14: 19.66 g and 20.46 g and 17.47 g and 19.96 g and 19.78 g and 19.09 g and 19.84 g and 18.65 g
  Animal weight, Day 21: 20.10 g and 21.36 g (2×) and 18.72 g and 21.20 g and 20.58 g and 20.79 g and 19.87 g
  Animal weight, Day 28: 21.96 g and 22.76 g and 19.99 g and 22.98 g and 22.80 g and 22.31 g and 22.57 g and 20.94 g
[2]; [7]
  Animal weight, Day 0: 14.57 ± 0.8 g
  Animal weight, Day 6: 17.74 ± 1.0 g
  Animal weight, Day 14: 18.92 ± 1.1 g
  Animal weight, Day 21: 19.86 ± 1.1 g
  Animal weight, Day 28: 21.60 ± 1.2 g
  Animal weight, Day 35: 22.19 ± 1.1 g
  Animal weight, Day 45: 22.78 ± 1.1 g
[2]; [8]
  Animal weight, Day 0: 13.58 g and 16.07 g and 14.28 g and 13.75 g and 14.89 g and 15.10 g and 13.67 g and 15.20 g
  Animal weight, Day 6: 17.25 g and 18.57 g and 17.03 g and 16.46 g and 17.79 g and 18.38 g and 16.98 g and 19.46 g
  Animal weight, Day 14: 18.57 g (2×) and 20.58 g and 18.25 g and 17.66 g and 18.83 g and 18.02 g and 20.86 g
  Animal weight, Day 21: 19.72 g and 21.59 g and 19.22 g and 18.38 g and 19.40 g and 19.35 g and 19.45 g and 21.74 g
  Animal weight, Day 28: 21.40 g (2×) and 23.72 g and 20.35 g and 20.18 g and 21.41 g and 21.14 g and 23.19 g
  Animal weight, Day 35: 21.82 g and 24.00 g and 20.91 g and 20.95 g and 22.47 g and 21.39 g and 22.28 g and 23.68 g
  Animal weight, Day 45: 22.71 g and 24.66 g and 20.96 g and 21.78 g and 23.15 g and 22.10 g and 23.09 g and 23.80 g
[2]; [9]
  Animal weight, Day 0: 15.15 ± 1.1 g
  Animal weight, Day 6: 18.40 ± 0.7 g
[2]; [10]
  Animal weight, Day 0: 13.90 g and 16.04 g and 15.50 g
  Animal weight, Day 6: 17.60 g and 19.18 g and 18.43 g
[2]; group fed CPDS diet for 45 days, food intake constant
  Course of animal weight (in words): stabilized after day 35
[2]; group fed CPDS for 45 days, p=0.01432
  Weight gain vs group on normal Purina chow (in words): statistically significant lower weight gain
[2]; groups fed CPDS diet for 6 and 30 days
  Weight gain (in words): constant and normal
[3]; Group 4, 45 days on CPDS diet vs Group 3
  Humoral response to KLH, variation (%): −52.94%
[3]; Group 4, 45 days on CPDS diet, KLH s.c. at day 30, serum 15 days later, individual mice
  Serum dilution (lowest with apparent antibody response to KLH): 1/4 (4×) and 0 (4×)
[3]; Group 4, 45 days on CPDS diet, Mean ± S.D.
  dilution log 2 (antibody titer to KLH): 1.00 log 2 and 1.00 ± 1.07 log 2
[3]; Group 4, 45 days on CPDS diet, individual mice
  dilution log 2 (antibody titer to KLH): 2 log 2 (4×) and 0 log 2 (4×)
[4]
  Toxicity: low toxicity

From patent US8163776B2, “Method of immunomodulation using thione-forming disulfides” (Grassetti family Trust, priority 2001, dated 2012)
